# Data taken from US12427134B2, “Methods of reducing the risk of cardiovascular events in a subject with atrial fibrillation and/or atrial flutter” (priority 2019, dated 2025).
# Tested on: hypertriglyceridemic patients with cardiovascular disease or at high risk for cardiovascular disease
# Assay: REDUCE-IT: subgroup analyses of the primary and key secondary endpoints
# Format: in vivo, human
# Conditions: for Primary endpoint, patients with event (%) / Time to primary endpoint, HR (95% CI) AMR101/Placebo / Primary endpoint, patients with event n/N: ITT
# Method: Exploratory Subgroup Analyses: Analyses of the effects that patients off study drug and withdrawn from study have on the primary endpoint were performed. Subgroup analyses of the primary and key secondary endpoints were performed as described for the primary endpoint. For each subgroup, Kaplan-Meier estimates, the log-rank test stratified by stratification factors used at randomization (except where the subgroup was a stratification factor), and HRs and CIs from the Cox proportional hazards model as specified for the primary efficacy endpoint, were summarized by treatment group. Demographic, disease, treatment, and baseline lipid and lipoproteins parameters were explored.
# Demographic parameters included: Gender; age at baseline (<65 years and ≥65 years); race (white and nonwhite, or any other subset with at least 10% of the total number of patients); geographical region (Westernized, Eastern European, and Asia Pacific countries); and baseline ezetimibe use (yes/no).
# Disease parameters included: CV risk category; the presence/absence of diabetes at baseline; and renal dysfunction at baseline (estimated glomerular filtration rate [eGFR]<60 mL/min/1.73 m^2) using the Chronic Kidney Disease Epidemiology Collaboration (CKD-EPI) equation as follows: eGFR=141×min(Scr/κ,1)^α×max(Scr/κ,1)^[…]^Age×1.018 [if female]×1.159 [if black]
# Treatment Parameters included: Statin intensity at baseline (statin type and regimen); and statin intensity categories as defined in ACC/AHA Cholesterol Guidelines (Stone 2013) and patient's 10-year CV Risk Score (Goff 2013).
# Baseline Lipid and Lipoprotein Parameter included: LDL-C (by tertile); HDL-C (by tertile, and tertile by gender); TG (by tertile, and tertile by gender); RLP-C (by tertile); TG ≥150 mg/dL and TG <150 mg/dL; TG ≥200 mg/dL and TG <200 mg/dL; TG ≥median, TG <median; combined highest tertile for TG and lowest tertile for HDL-C; gender-specific highest tertile for TG and lowest tertile for HDL-C; TG ≥200 mg/dL with HDL-C ≤35 mg/dL; hsCRP (≤3 mg/L and >3 mg/L) and by gender; hsCRP (≤2 mg/L and >2 mg/L) and by gender; Apo B (by tertile); non-HDL-C (by tertile); baseline hemoglobin A1c (Hb1c) value (<6.5%, ≥6.5%); baseline PAD; and baseline TG levels ≥150 mg/dL with high-density lipoprotein cholesterol (HDL-C) levels ≤40 mg/dL for males and ≤50 mg/dL for females.
# A Cox proportional hazard (PH) model as mentioned above but additionally with baseline TG as a covariate were fitted to the data at each interim. Diagnostic plots for the PH assumption were evaluated. The consistency of the treatment effects in subgroups was assessed for the primary and key secondary efficacy endpoints. For each subgroup variable, a Cox PH model with terms for treatment, stratification factors (with the exception of those subgroup variables related to the stratification factors, i.e., CV risk category), subgroup, and treatment-by-subgroup interaction were performed. The main treatment effect was tested with this model. P-values for testing the interaction terms <0.15 were considered significant. Results were presented in a Forest plot.
# Subgroup analyses of the primary and key secondary endpoints were performed as described for the primary endpoint. For each subgroup, Kaplan-Meier estimates, the log-rank test stratified by stratification factors used at randomization (except where the subgroup was a stratification factor), and HRs and CIs from the Cox proportional hazards model as specified for the primary efficacy endpoint, were summarized by treatment group. All subgroup analyses were conducted for the ITT, mITT and PP populations.
# Of note regarding the following subgroup analyses, per study design, subgroup analyses are underpowered to detect statistically significant results within each individual subgroup, particularly when a subgroup represents less than 50% of the enrolled population, and when a subgroup has low event rates. […]
# [1] = Baseline TG <150 mg/dL or HDL-C >40 mg/dL (Males) or >50 mg/dL (Females)
# [2] = Baseline TG ≥150 mg/dL and HDL-C ≤40 mg/dL (Males) or ≤50 mg/dL (Females)
# [3] = Females, Baseline hsCRP >2 mg/L
# [4] = Females, Baseline hsCRP ≤2 mg/L
# [5] = Females, HDL-C Highest Tertile (>48 to ≤96.5 mg/dL)
# [6] = Females, HDL-C Lowest Tertile (≥21 to ≤41 mg/dL)
# [7] = Females, HDL-C Middle Tertile (>41 to ≤48 mg/dL)
# [8] = Females, Highest tertile for baseline TG and lowest tertile for baseline HDL-C (No)
# [9] = Females, Highest tertile for baseline TG and lowest tertile for baseline HDL-C (Yes)
# [10] = Females, TG Highest Tertile (>241.5 to ≤1401 mg/dL)
# [11] = Females, TG Lowest Tertile (≥92.5 to ≤186 mg/dL)
# [12] = Females, TG Middle Tertile (>186 to ≤241.5 mg/dL)
# [13] = Males, HDL-C Highest Tertile (>42 to ≤107.5 mg/dL)
# [14] = Males, HDL-C Lowest Tertile (≥17 to ≤35.5 mg/dL)
# [15] = Males, HDL-C Middle Tertile (>35.5 to ≤42 mg/dL)
# [16] = Males, Highest tertile for baseline TG and lowest tertile for baseline HDL-C (No)
# [17] = Males, Highest tertile for baseline TG and lowest tertile for baseline HDL-C (Yes)
# [18] = Males, TG Highest Tertile (>253.5 to ≤830 mg/dL)
# [19] = Males, TG Lowest Tertile (≥81.25 to ≤191.5 mg/dL)
# [20] = Males, TG Middle Tertile (>191.5 to ≤253.5 mg/dL)
# [21] = Overall (Males and Females), Baseline hsCRP >2 mg/L
# [22] = Overall (Males and Females), Baseline hsCRP ≤2 mg/L
# [23] = Overall (Males and Females), HDL-C Highest Tertile (>43.5 to ≤107.5 mg/dL)
# [24] = Overall (Males and Females), HDL-C Lowest Tertile (≥17 to ≤36.5 mg/dL)
# [25] = Overall (Males and Females), HDL-C Middle Tertile (>36.5 to ≤43.5 mg/dL)
# [26] = Overall (Males and Females), Highest tertile for baseline TG and lowest tertile for baseline HDL-C (No)
# [27] = Overall (Males and Females), Highest tertile for baseline TG and lowest tertile for baseline HDL-C (Yes)
# [28] = Overall (Males and Females), TG Highest Tertile (>250 to ≤1401 mg/dL)
smiles,measurement,setting,value
"CC/C=C\C/C=C\C/C=C\C/C=C\C/C=C\CCCC(=O)OCC [AMR101, eicosapentaenoic acid ethyl ester]","Key secondary endpoint event, patients",<65 years subgroup,9.0%
same,"Key secondary endpoint, HR",<65 years subgroup,0.652
same,"Primary endpoint event, patients",<65 years subgroup,14.4%
same,"Primary endpoint, HR",<65 years subgroup,0.650
same,"Primary endpoint, patients with event (%)",Baseline HbA1c <6.5%,16.5%
same,"Time to primary endpoint, HR (95% CI) AMR101/Placebo",Baseline HbA1c <6.5%,0.793
same,"Time to primary endpoint, HR (95% CI) AMR101/Placebo",Baseline HbA1c ≥6.5%,0.701
same,"Primary endpoint, patients with event (%)",[1],18.2%
same,"Time to primary endpoint, HR (95% CI) AMR101/Placebo",[1],0.842
same,"Primary endpoint, patients with event (%)",[2],16.5%
same,"Time to primary endpoint, HR (95% CI) AMR101/Placebo",[2],0.691
same,"Primary endpoint, patients with event (%)",[3],(15.0) %
same,"Primary endpoint, patients with event n/N",[3],113/752
same,"Time to primary endpoint, HR (95% CI) AMR101/Placebo",[3],0.930
same,"Primary endpoint, patients with event (%)",[4],(10.0) %
same,"Primary endpoint, patients with event n/N",[4],41/409
same,"Time to primary endpoint, HR (95% CI) AMR101/Placebo",[4],0.621
same,"Primary endpoint, patients with event (%)",[5],(13.9) %
same,"Primary endpoint, patients with event n/N",[5],50/359
same,"Time to primary endpoint, HR (95% CI) AMR101/Placebo",[5],0.936
same,"Primary endpoint, patients with event (%)",[6],(16.7) %
same,"Primary endpoint, patients with event n/N",[6],71/426
same,"Time to primary endpoint, HR (95% CI) AMR101/Placebo",[6],0.894
same,"Primary endpoint, patients with event (%)",[7],(8.8) %
same,"Primary endpoint, patients with event n/N",[7],33/374
same,"Time to primary endpoint, HR (95% CI) AMR101/Placebo",[7],0.609
same,"Primary endpoint, patients with event (%)",[8],(13.7) %
same,"Primary endpoint, patients with event n/N",[8],59/431
same,"Time to primary endpoint, HR (95% CI) AMR101/Placebo",[8],0.755
same,"Primary endpoint, patients with event (%)",[9],(15.7) %
same,"Primary endpoint, patients with event n/N",[9],29/185
same,"Time to primary endpoint, HR (95% CI) AMR101/Placebo",[9],0.934
same,"Primary endpoint, patients with event (%)",[10],(12.3) %
same,"Primary endpoint, patients with event n/N",[10],46/375
same,"Time to primary endpoint, HR (95% CI) AMR101/Placebo",[10],0.734
same,"Primary endpoint, patients with event n/N",[11],49/396
same,"Time to primary endpoint, HR (95% CI) AMR101/Placebo",[11],0.728
same,"Primary endpoint, patients with event (%)",[12],(15.1) %
same,"Primary endpoint, patients with event n/N",[12],59/390
same,"Time to primary endpoint, HR (95% CI) AMR101/Placebo",[12],1.077
same,"Primary endpoint, patients with event (%)","Males, Baseline hsCRP >2 mg/L",(21.5) %
same,"Time to primary endpoint, HR (95% CI) AMR101/Placebo","Males, Baseline hsCRP >2 mg/L",0.772
same,"Primary endpoint, patients with event (%)","Males, Baseline hsCRP ≤2 mg/L",(16.4) %
same,"Time to primary endpoint, HR (95% CI) AMR101/Placebo","Males, Baseline hsCRP ≤2 mg/L",0.691
same,"Primary endpoint, patients with event (%)",[13],(20.5) %
same,"Primary endpoint, patients with event n/N",[13],187/913
same,"Time to primary endpoint, HR (95% CI) AMR101/Placebo",[13],0.857
same,"Primary endpoint, patients with event (%)",[14],(19.0) %
same,"Time to primary endpoint, HR (95% CI) AMR101/Placebo",[14],0.652
same,"Primary endpoint, patients with event (%)",[15],(16.9) %
same,"Primary endpoint, patients with event n/N",[15],160/945
same,"Time to primary endpoint, HR (95% CI) AMR101/Placebo",[15],0.717
same,"Primary endpoint, patients with event (%)",[16],(18.1) %
same,"Time to primary endpoint, HR (95% CI) AMR101/Placebo",[16],0.693
same,"Primary endpoint, patients with event (%)",[17],(19.9) %
same,"Primary endpoint, patients with event n/N",[17],90/453
same,"Time to primary endpoint, HR (95% CI) AMR101/Placebo",[17],0.632
same,"Primary endpoint, patients with event (%)",[18],(18.9) %
same,"Primary endpoint, patients with event n/N",[18],181/960
same,"Time to primary endpoint, HR (95% CI) AMR101/Placebo",[18],0.671
same,"Primary endpoint, patients with event (%)",[19],(19.0) %
same,"Primary endpoint, patients with event n/N",[19],185/972
same,"Primary endpoint, patients with event (%)",[20],(18.6) %
same,"Primary endpoint, patients with event n/N",[20],185/993
same,"Time to primary endpoint, HR (95% CI) AMR101/Placebo",[20],0.741
same,"Primary endpoint, patients with event (%)",[21],(19.2) %
same,"Time to primary endpoint, HR (95% CI) AMR101/Placebo",[21],0.813
same,"Primary endpoint, patients with event (%)",[22],(15.0) %
same,"Time to primary endpoint, HR (95% CI) AMR101/Placebo",[22],0.680
same,"Primary endpoint, patients with event (%)",[23],15.9%
same,"Time to primary endpoint, HR (95% CI) AMR101/Placebo",[23],0.812
same,"Primary endpoint, patients with event (%)",[24],18.1%
same,"Time to primary endpoint, HR (95% CI) AMR101/Placebo",[24],0.667
same,"Primary endpoint, patients with event (%)",[25],17.6%
same,"Time to primary endpoint, HR (95% CI) AMR101/Placebo",[25],0.800
same,"Primary endpoint, patients with event (%)",[26],(16.3) %
same,"Time to primary endpoint, HR (95% CI) AMR101/Placebo",[26],0.679
same,"Primary endpoint, patients with event (%)",[27],(19.1) %
same,"Primary endpoint, patients with event n/N",[27],118/619
same,"Time to primary endpoint, HR (95% CI) AMR101/Placebo",[27],0.670
same,"Primary endpoint, patients with event (%)",[28],16.9%
same,"Time to primary endpoint, HR (95% CI) AMR101/Placebo",[28],0.675
